{"source": "paper PMC8262356", "about": "“SLC26A6-selective inhibitor identified in a small-molecule screen blocks fluid absorption in small intestine” (JCI Insight, 2021)", "biological_target": "T1, ENaC (Homo sapiens, UniProt P37088+P51168+P51170)", "T1 construct": "endogenous in cells; host or cells: well-differentiated human bronchial epithelial (HBE) cells at air-liquid interface", "T1 sequence (P37088 1-669)": "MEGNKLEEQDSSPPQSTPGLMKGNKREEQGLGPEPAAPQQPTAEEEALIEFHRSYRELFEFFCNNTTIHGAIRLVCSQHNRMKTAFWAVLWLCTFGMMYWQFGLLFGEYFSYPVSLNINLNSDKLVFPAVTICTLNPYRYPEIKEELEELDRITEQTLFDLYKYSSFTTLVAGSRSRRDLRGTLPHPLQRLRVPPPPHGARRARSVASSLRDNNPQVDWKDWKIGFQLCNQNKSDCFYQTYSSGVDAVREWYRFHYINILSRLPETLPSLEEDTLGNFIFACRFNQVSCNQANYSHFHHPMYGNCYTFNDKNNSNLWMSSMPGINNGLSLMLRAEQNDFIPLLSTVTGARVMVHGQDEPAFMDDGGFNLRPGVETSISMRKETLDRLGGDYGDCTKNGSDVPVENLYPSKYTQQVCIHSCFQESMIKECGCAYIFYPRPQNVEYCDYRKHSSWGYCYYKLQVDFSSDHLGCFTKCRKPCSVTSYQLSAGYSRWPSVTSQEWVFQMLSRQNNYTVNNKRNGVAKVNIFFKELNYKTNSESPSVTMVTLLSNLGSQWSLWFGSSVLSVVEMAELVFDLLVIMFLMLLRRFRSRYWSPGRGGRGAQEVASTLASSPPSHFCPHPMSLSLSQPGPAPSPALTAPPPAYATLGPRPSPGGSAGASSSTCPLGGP", "T1 sequence (P51168 1-640)": "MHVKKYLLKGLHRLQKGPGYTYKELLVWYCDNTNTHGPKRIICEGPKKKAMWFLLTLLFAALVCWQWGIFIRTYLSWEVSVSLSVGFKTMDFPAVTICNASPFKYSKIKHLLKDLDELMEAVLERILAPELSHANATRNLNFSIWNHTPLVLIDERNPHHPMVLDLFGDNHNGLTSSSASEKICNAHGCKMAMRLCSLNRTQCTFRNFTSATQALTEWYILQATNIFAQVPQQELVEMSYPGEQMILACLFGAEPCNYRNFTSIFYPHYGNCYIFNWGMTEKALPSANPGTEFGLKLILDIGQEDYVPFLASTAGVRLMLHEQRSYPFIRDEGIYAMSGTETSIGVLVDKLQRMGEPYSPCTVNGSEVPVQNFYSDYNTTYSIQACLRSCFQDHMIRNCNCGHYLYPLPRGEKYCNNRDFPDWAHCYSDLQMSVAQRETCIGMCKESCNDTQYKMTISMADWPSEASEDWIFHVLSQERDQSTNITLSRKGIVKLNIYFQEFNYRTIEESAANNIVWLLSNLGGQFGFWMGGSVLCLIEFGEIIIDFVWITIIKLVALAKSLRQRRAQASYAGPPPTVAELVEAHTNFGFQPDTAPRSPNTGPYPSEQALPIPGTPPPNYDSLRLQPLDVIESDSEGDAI", "T1 sequence (P51170 1-649)": "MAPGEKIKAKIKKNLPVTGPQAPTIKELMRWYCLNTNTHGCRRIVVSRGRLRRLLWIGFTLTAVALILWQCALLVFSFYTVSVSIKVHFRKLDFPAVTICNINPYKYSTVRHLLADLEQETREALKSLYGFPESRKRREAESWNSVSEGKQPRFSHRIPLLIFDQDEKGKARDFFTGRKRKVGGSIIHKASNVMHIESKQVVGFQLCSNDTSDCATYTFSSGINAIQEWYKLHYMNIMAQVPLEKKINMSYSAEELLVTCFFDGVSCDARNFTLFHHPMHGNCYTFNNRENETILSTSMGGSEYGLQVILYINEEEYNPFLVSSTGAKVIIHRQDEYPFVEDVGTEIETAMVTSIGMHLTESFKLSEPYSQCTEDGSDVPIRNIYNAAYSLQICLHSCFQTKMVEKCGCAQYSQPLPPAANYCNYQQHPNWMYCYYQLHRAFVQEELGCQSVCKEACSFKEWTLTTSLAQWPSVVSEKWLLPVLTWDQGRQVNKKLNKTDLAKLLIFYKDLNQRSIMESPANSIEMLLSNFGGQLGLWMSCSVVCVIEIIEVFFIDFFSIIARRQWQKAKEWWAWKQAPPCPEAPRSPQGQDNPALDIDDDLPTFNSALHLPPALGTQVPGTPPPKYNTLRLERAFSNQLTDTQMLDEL", "test": "Short-circuit current in well-differentiated HBE cells, amiloride response", "format": "cell-based", "conditions": "25 μM pretreatment", "description": "PAT1inh-B01 selectivity was studied by testing its effects on related SLC26A family anion transporters and the Cl^– channel TMEM16A. These measurements used a similar Cl^–/I^– exchange protocol, but FRT cells separately expressed each of the SLC26A family members or TMEM16A. […] PAT1inh-B01 selectivity was also tested by short-circuit current (Isc) in well-differentiated human bronchial epithelial (HBE) cells, which have a complex ion transport mechanism that includes cystic fibrosis transmembrane conductance regulator (CFTR), epithelial Na^+ channel (ENaC), and Ca^+2-activated chloride channels (CaCCs) ([13]). […] Potential PAT1inh-B01 cytotoxicity was studied in FRT cells.\nFigure 3 PAT1inh-B01 selectivity and cytotoxicity. […] Cl^–/I^– exchange or I^– influx measured in FRT cells coexpressing YFP and SLC26A isoforms or TMEM16A, with data shown for 25 μM PAT1inh-B01, DMSO vehicle control, and 500 μM niflumic acid (positive control for SLC26A transporters) or 10 μM TMinh-23 (positive control for TMEM16A). […] (C) (left) Short-circuit current (Isc) in well-differentiated HBE cells measured in the absence (top) and presence (bottom) of 25 μM PAT1inh-B01. […]\nYFP-based cellular assays of slc26a3, slc26a4, SLC26A9, and TMEM16A function were performed as described previously ([7]). […] The activities of ENaC, CFTR, and CaCC were determined using well-differentiated HBE cells as described previously ([13]). […]"}
{"smiles": "Cc1c(Br)c(C(F)(F)F)nn1CC(=O)N1CCc2nc3cc(-c4ccccc4)[nH]n3c(=O)c2C1", "note": "[PAT1inh-B01]", "values": [{"measurement": "effect on ENaC activity (Isc response to amiloride)", "result": "no significant effect"}]}
